Our source for the pest or weed control values is US8008487B2, “Substituted thieno[2,3-D]pyrimidines as fungicides” (priority 2004, dated 2011).

What all share (format): in vivo
Experiment [1] relates to Leptosphaeria nodorum. Kind of experiment: Glume Blotch of Wheat (LEPTNO), whole-plant fungicide test. Particulars: Parastagonospora nodorum, foliar, 24 h, 200 ppm on foliage, one-day protectant test, read-out: LEPTNO percent control of disease.
The subject of experiment [2] is Septoria tritici. Kind of experiment: Speckled Leaf Blotch of Wheat (SEPTTR), whole-plant fungicide test. To be noted: Zymoseptoria tritici, 24 h, one-day protectant test, read-out: SEPTTR percent control of disease; for pest or weed control at 200 ppm: foliar, 200 ppm on foliage.
Experiment [3] concerns Puccinia recondita tritici. Kind of experiment: Leaf Rust of Wheat (PUCCRT), whole-plant fungicide test. To be noted: Puccinia recondita, foliar, 24 h, 200 ppm on foliage, one-day protectant test, read-out: PUCCRT percent control of disease.
Experiment [4] deals with Cochliobolus sativus. As to the kind of experiment: Spot Blotch of Wheat (COCHSA), whole-plant fungicide test. Particulars: Bipolaris sorokiniana, 24 h, one-day protectant test, read-out: COCHSA percent control of disease; for pest or weed control at 200 ppm: foliar, 200 ppm on foliage. Summed up: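 Percent control is derived from disease severity relative to untreated inoculated plants, scored 4–28 days later. Spore inoculation followed foliar spraying by one day (protectant) or preceded it by two days (curative); plants kept humid 1-2 days before greenhouse. Spray dose was 200 ppm, occasionally 100, 75 or 8.3 ppm, in acetone/Triton X100 water.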

Experiment [5] deals with Colletotricum lagenarium. As to the kind of experiment: Cucumber Anthracnose (COLLLA), whole-plant fungicide test. Particulars: Cucumis sativus, foliar, 24 h, 200 ppm on foliage, one-day protectant test, read-out: COLLLA percent control of disease.
Experiment [6] relates to Erysiphe cichoracaerum. As to the kind of experiment: Cucumber Powdery Mildew (ERYSCI), whole-plant fungicide test. To be noted: Erysiphe, foliar, 24 h, 200 ppm on foliage, one-day protectant test, read-out: ERYSCI percent control of disease.
For experiment [7], the system named is Magnaporthe grisea. Kind of experiment: whole plant or invertebrate. Particulars: Pyricularia oryzae, in Oryza sativa, foliar, 24 h, read-out: PYRIOR percent control of disease, 200 ppm on foliage, rice, one-day protectant test.
Experiment [8] concerns Phytophthora infestans. Kind of experiment: whole plant or invertebrate. Particulars: Phytophthora infestans, in Solanum lycopersicum, foliar, 24 h, read-out: PHYTIN percent control of disease, 200 ppm on foliage, tomato, one-day protectant test.
Experiment [9] has as its system Erysiphe graminis f. sp. tritici. Kind of experiment: Powdery Mildew of Wheat (ERYSGT), whole-plant fungicide test. Particulars: Blumeria graminis, 24 h, one-day protectant test, read-out: ERYSGT percent control of disease; for pest or weed control at 200 ppm: foliar, 200 ppm on foliage.

As to `CC(Nc1ncnc2scc(Cl)c12)c1cccn1C` (stereo not drawn) [Compound 13], the pest or weed control at 200 ppm in experiment [1], in experiment [2], in experiment [3], in experiment [4], in experiment [5] and in experiment [6] was 0 to 49% throughout. Besides, the pest or weed control at 200 ppm in experiment [7] lay in the range of 50 to 79%; in [8], 0 to 49%; in experiment [9] it was 0 to 49%.

Turning to `COCc1ccc(C(C)Nc2ncnc3scc(Cl)c23)cc1` (stereo not drawn) [Compound 14], the pest or weed control at 200 ppm in [1] is 80 to 100%; in [2] it was 80 to 100%; in experiment [3], 80 to 100%; in [4] it was 0 to 49%; in experiment [5], 80 to 100%; in experiment [6] it was 80 to 100%. Further, the pest or weed control at 200 ppm in experiment [7], in experiment [8] and in experiment [9] was 80 to 100% throughout.

In the case of `CC(Nc1ncnc2scc(Cl)c12)c1cc[nH]c1` (stereo not drawn) [Compound 15], the pest or weed control at 200 ppm in experiment [1] lay in the range of 0 to 49%; in experiment [2] it was 0 to 49%; in [3], 80 to 100%; in experiment [4] it was 0 to 49%; in experiment [5], 0 to 49%; in experiment [6] it was 0 to 49%. Besides, the values for the pest or weed control at 200 ppm in experiment [7], in experiment [8] and in experiment [9] were 50 to 79%, 0 to 49% and 0 to 49%, respectively.

`CC(Nc1ncnc2scc(Cl)c12)c1ccn(C(C)C)c1` (stereo not drawn) [Compound 16]: the pest or weed control at 200 ppm in [1] was in the range of 0 to 49%; in experiment [2], 0 to 49%; in [3], 0 to 49%; in experiment [4] it was 50 to 79%; in experiment [5], 0 to 49%; in [6], 0 to 49%. Besides, the pest or weed control at 200 ppm in experiment [7] fell in the range of 50 to 79%; in experiment [8], 0 to 49%; in experiment [9] it was 0 to 49%.

Regarding `Clc1csc2ncnc(C3Cc4ccccc4C3)c12` [Compound 17], the pest or weed control at 200 ppm was 0 to 49% in experiment [1]; 0 to 49% in [2]; 0 to 49% in [3]; 50 to 79% in experiment [4]; 0 to 49% in [5]; 0 to 49% in [6]. Besides, the pest or weed control at 200 ppm in experiment [7], in experiment [8] and in [9] was 0 to 49% throughout.

Turning to `CC(COc1ccc(C(F)(F)F)cn1)Nc1ncnc2scc(Cl)c12` (stereo not drawn) [Compound 18, 5-chloro-N-(1-methyl-2-{[5-(trifluoromethyl)pyridin-2-yl]oxy}ethyl)thieno [2,3-d]pyrimidin-4-amine], the pest or weed control at 200 ppm fell in the range of 80 to 100% in [1]; 80 to 100% in experiment [2]; 80 to 100% in experiment [3]; 0 to 49% in [4]; 0 to 49% in [5]; 80 to 100% in experiment [6]. For the same molecule, the pest or weed control at 200 ppm in experiment [7], in experiment [8] and in [9] was 80 to 100% throughout.

Consider `CC(Nc1ncnc2scc(Cl)c12)c1ccc(C(F)(F)F)cn1` (stereo not drawn) [Compound 19], for which the pest or weed control at 200 ppm in experiment [1] is 50 to 79%; in experiment [2] it was 50 to 79%; in experiment [3], 50 to 79%; in [4], 80 to 100%; in [5], 0 to 49%; in [6], 0 to 49%. The pest or weed control at 200 ppm in experiment [7] was 80 to 100%; in [8] it was 0 to 49%; in experiment [9], 50 to 79%.

Turning to `CC(Nc1ncnc2scc(Cl)c12)c1ccc(OCl)nc1` (stereo not drawn) [Compound 29], the pest or weed control at 200 ppm fell in the range of 80 to 100% in experiment [1]; 80 to 100% in experiment [3]; 0 to 49% in experiment [5]; 80 to 100% in [6]; 80 to 100% in [7]; 80 to 100% in [8]. Moreover, the pest or weed control at 100 ppm in experiment [2] (100 ppm (footnote a)) was in the range of 50 to 79%; in experiment [4] (100 ppm (footnote a)) it was 0 to 49%; in experiment [9] (100 ppm (footnote a)), 80 to 100%.

As to `CC(C)c1ccc(C(C)Nc2ncnc3scc(Cl)c23)nc1` (stereo not drawn) [Compound 34], the pest or weed control at 200 ppm in [1] is 80 to 100%; in [2], 50 to 79%; in [3], 80 to 100%; in experiment [4], 0 to 49%; in [5], 50 to 79%; in experiment [6], 80 to 100%. Further, the figures for the pest or weed control at 200 ppm in [7], in experiment [8] and in experiment [9] were 80 to 100%, 0 to 49% and 80 to 100%, respectively.

For `CC(Nc1ncnc2scc(Cl)c12)c1ccc(OCc2ccccc2)cn1` (stereo not drawn) [Compound 35], the pest or weed control at 200 ppm in experiment [1] fell in the range of 50 to 79%; in [2] it was 50 to 79%; in [3], 80 to 100%; in experiment [4], 0 to 49%; in experiment [5], 80 to 100%; in experiment [6], 50 to 79%. The pest or weed control at 200 ppm in [7] lay within 80 to 100%; in experiment [8], 50 to 79%; in experiment [9], 0 to 49%.

Regarding `COc1cnc(C(C)Nc2ncnc3scc(Cl)c23)nc1` (stereo not drawn) [Compound 36], the pest or weed control at 200 ppm was in the range of 0 to 49% in experiment [1]; 50 to 79% in [2]; 80 to 100% in experiment [3]; 0 to 49% in [4]; 0 to 49% in experiment [5]; 0 to 49% in experiment [6]. The pest or weed control at 200 ppm was in the range of 80 to 100% in [7], 80 to 100% in experiment [8] and 0 to 49% in experiment [9].

With `CC(COc1ccccn1)Nc1ncnc2scc(Cl)c12` (stereo not drawn) [Compound 37, 5-(chlorothieno[2,3-d]pyrimidin-4-yl)-[1-methyl-2-(pyridin-2-yloxy)ethyl]amine], the pest or weed control at 200 ppm in experiment [1] is 80 to 100%; in [2] it was 0 to 49%; in experiment [3], 80 to 100%; in experiment [4], 0 to 49%; in experiment [5] it was 0 to 49%; in experiment [6] it was 80 to 100%. Besides, the pest or weed control at 200 ppm was 80 to 100% in [7], 0 to 49% in experiment [8] and 50 to 79% in experiment [9].

Turning to `CC(Nc1ncnc2scc(Cl)c12)c1ccc(OCC(F)(F)F)nc1` (stereo not drawn) [Compound 38], the pest or weed control at 200 ppm in [1] is 50 to 79%; in experiment [2] it was 50 to 79%; in experiment [3], 80 to 100%; in experiment [4], 0 to 49%; in experiment [5], 0 to 49%; in [6], 80 to 100%. For the same molecule, the pest or weed control at 200 ppm in experiment [7], in [8] and in experiment [9] was 80 to 100% each time.

With `CCOc1ccc(C(C)Nc2ncnc3scc(Cl)c23)cn1` (stereo not drawn) [Compound 39], the pest or weed control at 200 ppm fell in the range of 80 to 100% in experiment [1]; 80 to 100% in experiment [2]; 80 to 100% in [3]; 0 to 49% in [4]; 0 to 49% in experiment [5]; 80 to 100% in experiment [6]. For the same molecule, the pest or weed control at 200 ppm in [7] fell in the range of 80 to 100%; in experiment [8], 50 to 79%; in experiment [9] it was 80 to 100%.

On to `CC(Nc1ncnc2scc(Cl)c12)c1nc2ccccc2s1` (stereo not drawn) [Compound 41], for which the pest or weed control at 200 ppm in experiment [1] lay in the range of 80 to 100%; in experiment [2], 80 to 100%; in experiment [3], 80 to 100%; in experiment [4], 50 to 79%; in [5] it was 0 to 49%; in experiment [6], 80 to 100%. In addition, the pest or weed control at 200 ppm in experiment [7], in experiment [8] and in [9] was 80 to 100% throughout.

For `CSc1ccc(C(C)Nc2ncnc3scc(Cl)c23)cc1` (stereo not drawn) [Compound 42], the pest or weed control at 200 ppm in [1] fell in the range of 50 to 79%; in experiment [2] it was 80 to 100%; in experiment [3] it was 80 to 100%; in experiment [4], 0 to 49%; in experiment [5], 0 to 49%; in experiment [6], 80 to 100%. Moreover, the pest or weed control at 200 ppm is 80 to 100% in [7], 0 to 49% in experiment [8] and 50 to 79% in experiment [9].
